From PMC12741935 (Alzheimer's & Dementia, 2025)

Key:
[1] = test system: 14 DIV mouse hippocampal neurons; experiment: oTau-induced spine loss: drebrin-positive spine density in cultured hippocampal neurons; assay type: cell-based; details: oTau 50 nM + inhibitor 24 h vs oTau alone; NVS-PAK1-1 10 nM, NVS-PAK1-C 10 nM, AZ13705339 1 nM, G5555 5 nM
Protocol: (§1) For in vitro study, all animal procedures were conducted in accordance with the National Institutes of Health Guide for the Care and Use of Laboratory Animals using protocols approved by the institutional animal care and use committee at Stanford University. Timed pregnant C57BL/6 mice (Strain code: 027) were purchased from Charles River Laboratories and delivered on embryonic day 15 (E15), after which E16 embryos were used for primary hippocampal cultures. Primary embryonic mouse hippocampal neuron cultures were plated on poly‐D‐lysine‐coated (10 µg/mL) glass cover slips at 40,000 to 50,000 cells per well in 12‐well plates (Corning Life Sciences). Cells were seeded in plating medium DMEM/F12 supplemented with 10% fetal bovine serum and 1 × penicillin/streptomycin (PS) for 2 hours. Medium was then changed to B‐27 Plus Neuronal Culture System (Invitrogen) supplemented with PS, and 2 mM glutamine.
(§2) Immunofluorescence was performed as described previously.[24] Briefly, cultured hippocampal neurons were fixed in 4% formaldehyde for 20 minutes, permeabilized for 6 minutes in 80% ice‐cold methanol, and incubated with primary antibodies at 4°C overnight. Primary antibodies used were rabbit polyclonal MAP2 antibody for labeling dendrites (1:1000, #8707, Cell Signaling) and mouse monoclonal drebrin antibody for labeling dendritic spines (1:300; Cat#ADI‐NBA‐110, Enzo). Secondary antibodies consisted of donkey antirabbit or antimouse conjugated with either FITC or Cy3 (1:400; Jackson ImmunoResearch Laboratories, Inc.).
The cultured hippocampal neurons were imaged using an oil‐based 63x objective on a Leica Stellaris 5 confocal microscope. The cell nucleus was stained with DAPI and imaged at a wavelength of 405 nm (blue channel), the dendrites stained by MAP2 were imaged at 488 nm wavelength (green channel), and the drebrin‐stained spines were imaged at a wavelength of 561 nm (red channel). […] The number of steps for every z‐stack picture of a neuron were determined by the size of the neuron in the z‐plane, to ensure that the entirety of a neuron is captured in the picture. […]
For quantification of drebrin‐positive spines in vitro, the images were analyzed using Imaris 9.3 software. […] After manually tracing the dendrites, the spines along the dendrites were assessed using the automatic “spine detection” function in Imaris. […] The spine density (number of spines/dendrite length) was then calculated for each neuron. All image acquisition and quantification were performed in a blind manner. For in vitro quantification of dendrite degeneration, Neurolucida (MBF Biosciences) in the manual mode was used to measure the total dendritic length, numbers of dendrites, and dendritic complexity for each neuron.

[2] = test system: 14 DIV hippocampal neurons; experiment: oAβ-induced dendrite degeneration (MAP2 dendrite length, number, complexity) in cultured hippocampal neurons; assay type: cell-based, mouse
Protocol: as §1, §2
The cultured hippocampal neurons were imaged using an oil‐based 63x objective on a Leica Stellaris 5 confocal microscope. The cell nucleus was stained with DAPI and imaged at a wavelength of 405 nm (blue channel), the dendrites stained by MAP2 were imaged at 488 nm wavelength (green channel), and the drebrin‐stained spines were imaged at a wavelength of 561 nm (red channel). Z‐stack images of neurons were acquired at a 1024 × 1024 resolution, a zoom factor of 1.0, and a z‐step size of 0.5 µm. The number of steps for every z‐stack picture of a neuron were determined by the size of the neuron in the z‐plane, to ensure that the entirety of a neuron is captured in the picture. The areas to be imaged were selected systematically, starting from the top‐left region to proceeding to the bottom‐right region of a coverslip. For imaging, preference was given to field of views containing isolated neurons versus clustered neurons.
For quantification of drebrin‐positive spines in vitro, the images were analyzed using Imaris 9.3 software. Each image consisted of one major neuron and the “filaments” option in Imaris was applied to manually trace along the dendrites of every neuron, by placing starting and seed points at the beginning and along the length of the dendrites, respectively. The largest dendrite diameter (i.e., Starting Point) was set at 9.00 µm threshold while the thinnest dendrite diameter (i.e., Seed Point) was set at 1.00 µm threshold. After manually tracing the dendrites, the spines along the dendrites were assessed using the automatic “spine detection” function in Imaris. The thinnest spine diameter was set at 0.80 µm threshold while the maximum spine length was set at 5.00 µm. The spine density (number of spines/dendrite length) was then calculated for each neuron. All image acquisition and quantification were performed in a blind manner. For in vitro quantification of dendrite degeneration, Neurolucida (MBF Biosciences) in the manual mode was used to measure the total dendritic length, numbers of dendrites, and dendritic complexity for each neuron.

NfL, Aβ40, Aβ42 = experiment: Plasma NfL and plasma/brain Aβ40, Aβ42 ELISA in chronically treated 5xFAD mice; assay type: in vivo; details: chronic 100 mg/kg BID PO
Protocol: V-PLEX Aβ Peptide Panel 1 (4G8) Kit (Meso Scale Diagnostics, LLC #[…]) was used for Aβ40/Aβ42 detection and S-PLEX Neurofilament L Kit (Meso Scale Diagnostics, LLC # […]) was used for NfL analysis, according to the manufacturer's protocols. […] The supernatant recovered was the DEA soluble fraction containing the soluble Aβ isoforms. […] For ELISA, the DEA-soluble fraction was diluted at 10 times and 40 times and the insoluble fraction was diluted at 40 times and 300 times. The assay plates were read by MESO […] plate reader and analyzed using Discovery Workbench Software (MesoScale Discovery). All samples were run in duplicate and averaged for analysis. Brain concentrations of the soluble and insoluble Aβ were normalized to total protein. All samples from a single plasma collection timepoint were run together on the appropriate MSD plate with the kit provided calibration standards.

## CC(C)NC(=O)N1CC[C@H](NC2=Nc3cc(F)ccc3N(CC(F)F)c3ccc(Cl)cc32)C1 [NVS‐PAK1‐1, (S)‐3‐([2‐chloro‐5‐(2,2‐difluoroethyl)‐8‐fluoro‐5H‐dibenzo[b,e][1,4]diazepin‐11‐yl]amino)‐N‐isopropylpyrrolidine‐1‐carboxamide]
[1]
  drebrin-stained spine density (spine counts per µm of dendritic length): significantly higher spine counts
[2]; oAβ 1 µM + 10 nM, 24 h, vs oAβ alone
  dendritic complexity: preservation of complexity
[2]; oAβ 1 µM + inhibitor 24 h vs oAβ alone, NVS-PAK1-1 10 nM, AZ 1 nM, G 5 nM
  dendrite number per neuron: significantly increased dendrite number per neuron
[2]; oAβ 1 µM + inhibitor 24 h vs oAβ alone, NVS-PAK1-1 10 nM, PAK1-C 10 nM, AZ 1 nM, G 5 nM
  total dendrite length per neuron: preserved dendrite length
NfL, Aβ40, Aβ42; 5xFAD
  brain amyloid accumulation, soluble (DEA) and insoluble (FA) fractions: mirrored Aβ plasma values
NfL, Aβ40, Aβ42; young, aged, male, or female 5xFAD cohorts
  plasma NfL: did not significantly lower
